pEC50, pIC50: −log10 of the molar value.
Key:
[1] = test system: MMP1 expression from activated SFs (RASF); assay: MMP assay: MMP1 expression (ELISA) by TNF-α-triggered RASFs; format: cell-based; settings: RASF triggered with TNFα, MMP1 ELISA after 48 hrs, semi-quantitative score
Description: A 384-well format ELISA for measurement of MMP1 is developed. Various primary antibodies are tested, as well as various ELISA protocols. The following protocol is developed and validated to measure MMP1 levels in SF supernatant in 384 well plates: white Lumitrac 600 384 well plates (Greiner) are coated with 2 μg/mL anti-MMP1 antibody MAB1346 (Chemicon). The antibody is diluted in buffer 40 (1.21 g Tris base (Sigma), 0.58 g NaCl (Calbiochem) and 5 mL 10% NaN3 (Sigma) in 1 L milliQ water and adjusted to pH 8.5). After overnight incubation at 4° C., plates are washed with PBS (80 g NaCl, 2 g KCl (Sigma), 11.5 g Na2HPO4.7H2O and 2 g KH2PO4 in 10 L milliQ; pH 7.4) and blocked with 100 μL/well Casein buffer (2% Casein (VWR International) in PBS). Next day, casein buffer is removed from ELISA plates and replaced by 50 μL/well EC buffer (4 g casein, 2.13 g Na2HPO4 (Sigma), 2 g bovine albumin (Sigma), 0.69 g NaH2PO4.H2O (Sigma), 0.5 g CHAPS (Roche), 23.3 g NaCl, 4 mL 0.5 M EDTA pH 8 (Invitrogen), 5 mL 10% NaN3 in 1 L milliQ and adjusted to pH 7.0). 0.25 mM DTT (Sigma) is added to the thawed sample plates. After removal of the EC buffer, 20 μL of sample is transferred to the ELISA plates. After overnight incubation at 4° C. plates are washed twice with PBS and once with PBST (PBS with 0.05% Tween-20 (Sigma)) and incubated with 35 μL/well biotinylated anti-MMP1 antibody solution (R&D). This secondary antibody is diluted in buffer C (0.82 g NaH2PO4.H2O, 4.82 g Na2HPO4, 46.6 g NaCl, 20 g bovine albumin and 4 ml, 0.5M EDTA pH 8 in 2 L milliQ and adjusted to pH 7.0) at a concentration of 5 μg/mL. After 2 h of incubation at RT, plates are washed as described above and incubated with 50 μL/well streptavidin-HRP conjugate (Biosource). Streptavidin-HRP conjugate is diluted in buffer C at a concentration of 0.25 μg/mL. After 45 min, plates are washed as described above and incubated for 5 min with 50 μL/well BM Chem ELISA Substrate (Roche). Readout is performed on the Luminoscan Ascent Luminometer (Labsystems) with an integration time of 200 msec or with an Envision reader (Perkin Elmer).
SFs were acquired at passage 1 from a commercial supplier (Cell applications, Inc.). SFs are cultured in DMEM supplemented with 10% heat-inactivated FBS, 1× penicillin/streptomycin (Invitrogen) at 37° C., 10% CO2 until passage 6. Aliquots of the cells are frozen and cryopreserved in liquid nitrogen. Starting from a cryopreserved aliquot, cells are further expanded by sub-culturing cells at 1/3 ratio every week. Cells between passage 10 and 12 are routinely used in compound testing according to the following protocol.
Starting from the compound master stocks (all at 10 mM concentration in 100% DMSO) a 3-fold serial dilution is made in 96-well plates in 100% DMSO. Then, plates are further diluted 45-fold in M199 medium supplemented with 1% heat-inactivated FBS to obtain a intermediate work stock.
At day 1, RASFs are seeded in 96 well plates (flat bottom, tissue culture treated, Greiner) at a density of 3000 cells/well in complete synovial growth medium (Cell Applications). Day 5, the medium is completely removed from the cells, and replaced by 81 μL of M199 medium supplemented with 1% heat-inactivated FBS followed by addition of 10 μL compound out of the intermediate work stock. After an incubation period of 90 minutes, which allows the compounds to equilibrate and enter the cells, cells are stimulated with either TNF-α or ‘complex trigger’. TNF-α trigger is added in a volume of […] to obtain final concentration of 10 ng/mL. For that, TNF-α stock (PeproTech) at 10 μg/mL was diluted to 100 ng/mL TNF-α in M199 medium supplemented with 1% FBS. ‘Complex trigger’ mix is added in a volume of 20 μL to obtain a final concentration of 12.5%. For that, ‘complex trigger’ mix, is diluted to 80% with M199 medium supplemented with 1% FBS. […]

TAK1-TAB1 fusion protein = target: T1, TAK1-TAB1 fusion protein (Homo sapiens, UniProt O43318); assay: In vitro TAK1 kinase assay (33P-ATP, casein substrate); format: biochemical; settings: semi-quantitative score, at least two independent experiments
T1 construct: purchased Upstate 14-600
T1 sequence (O43318 with tags, fused parts or gaps limits assumed): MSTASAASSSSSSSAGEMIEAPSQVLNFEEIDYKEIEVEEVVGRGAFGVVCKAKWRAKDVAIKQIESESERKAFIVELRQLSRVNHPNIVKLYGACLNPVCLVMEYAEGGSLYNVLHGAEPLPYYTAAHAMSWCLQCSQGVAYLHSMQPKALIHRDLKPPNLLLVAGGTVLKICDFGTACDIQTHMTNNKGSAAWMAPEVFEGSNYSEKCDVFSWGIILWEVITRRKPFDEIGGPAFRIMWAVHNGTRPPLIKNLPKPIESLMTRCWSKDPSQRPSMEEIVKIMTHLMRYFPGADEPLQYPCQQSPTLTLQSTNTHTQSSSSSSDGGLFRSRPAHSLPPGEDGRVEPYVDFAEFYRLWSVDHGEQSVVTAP
Description: For assessing TAK1 inhibition, active TAK1-TAB1 fusion protein was used from Upstate (Cat. No, 14-600). Kinase reactions are set up in 96-well polypropylene plates in 25 μL containing 0.5 mU TAK1-TAB1 fusion protein, […], 0.01 μCi/μL [^33P]-γ-ATP, 0.1 mg/mL casein substrate in 1× reaction buffer containing 10 mM MOPS pH 7.0, 1 mM EDTA.
Starting from the compound master stocks (all at 10 mM concentration in 100% DMSO) a 3-fold serial dilution is made in 96-well plates in 100% DMSO. Plates are further diluted […] in H2O containing 3.5% DMSO, to obtain an intermediate work stock with compounds at 5× the final assay concentration in 5% DMSO.
5 μL of the intermediate stock is transferred into V-bottom 96 well polypropylene plates and 11 μL of Enzyme mix is added. Enzyme mix is made by combining 5 μL 5× reaction buffer ([…] pH 7.0, 1 mM EDTA), 5 μL casein (Sigma) diluted in H2O to 0.5 mg/mL and 1 μL of TAK1-TAB1 fusion protein that was prediluted to 0.5 mU/μL in 1× enzyme dilution buffer (20 mM MOPS pH 7.0, 0.1 mM EDTA, 0.01% Brij-35, 5% glycerol, 1 mM DTT, 1 mg/ml BSA).
The reactions are started by the addition of 9 μL of mixture containing ATP (20.83 uM) and [^33P]-γ-ATP (0.028 μCi/μL).
The assay is stopped 90 minutes after incubation at 30° C. by the addition of 25 μL phosphoric acid (150 mM). The label incorporated into the casein substrate is separated from labeled unincorporated ATP by filtration onto 96-well filter plates using a harvester device. After 6 washes with 75 mM phosphoric acid, the bottom of the filter plates are sealed, and incorporated label is quantified after addition of 40 μL scintillation fluid using TopCount.
Based on these percent inhibition data obtained in at least two independent experiments for the compounds, compounds are ranked using semi-quantitative scores. Table A below lists a number of compounds which have been or can be prepared according to the synthetic methods described herein. Semi-quantitative score: • *>3001 nM • ** 1001-3000 nM • *** 101-1000 nM • ****<100 nM

| pEC50 [1] | pIC50 (TAK1-TAB1 fusion protein) | Structure (SMILES) |
| --- | --- | --- |
| < 5.52 | 6.00 to 7.00 | CCN1CCN(c2ccc(Nc3ccc(-c4ccc5c(c4)CNC5=O)n4ccnc34)cc2Cl)CC1 [Compound 28, 5-(8-(3-chloro-4-(4-ethylpiperazin-1-yl)phenylamino)imidazo[1,2-a]pyridin-5-yl)isoindolin-1-one] |
| < 5.52 | 6.00 to 7.00 | COc1cc(-c2ccc(Nc3ccc(N4CCN(C(C)C)CC4)cc3)c3nccn23)ccc1O [Compound 95] |
| < 5.52 | 6.00 to 7.00 | CCC(C)N1CCN(C(=O)c2ccc(Nc3ccc(-c4ccc5c(c4)CNC5=O)n4ccnc34)cc2)CC1 (centres unmarked) [Compound 52, 5-(8-(4-(4-sec-butylpiperazine-1-carbonyl)phenylamino)imidazo [1,2-a]pyridin-5-yl)isoindolin-1-one] |
| 6.00 to 7.00 | 6.00 to 7.00 | CN(C)c1ccc(CNC(=O)c2ccc(Nc3ccc(-c4ccc5c(c4)CNC5=O)n4ccnc34)cc2)cc1 [Compound 33] |
| 5.52 to 6.00 | 5.52 to 6.00 | O=c1cc(-c2ccc(Nc3ccc(C4CCN(CC(F)F)CC4)cc3)c3nccn23)cc[nH]1 [Compound 107, 4-(8-{4-[1-(2,2-Difluoro-ethyl)-piperidin-4-yl]-phenylamino)-imidazo[1,2-a]pyridin-5-yl)-1H-pyridin-2-one] |
| 6.00 to 7.00 | < 5.52 | NC(=O)c1ccc(-c2ccc(Nc3ccc(N4CCOCC4)c(F)c3)c3nccn23)cc1Cl [Compound 73] |
| < 5.52 | > 7.00 | O=C1NCc2cc(-c3ccc(Nc4ccc(C(=O)N5CCC(N6CCCCC6)CC5)cc4)c4nccn34)ccc21 [Compound 46, 5-(8-(4-(1,4′-bipiperidine-1′-carbonyl)phenylamino)imidazo[1,2-a]pyridin-5-yl)isoindolin-1-one] |
| 6.00 to 7.00 | 6.00 to 7.00 | O=c1cc(-c2ccc(Nc3ccc(N4CCC(N5CCCCC5)CC4)cc3)c3nccn23)cc[nH]1 [Compound 120, 4-[8-(4-[1,4′]Bipiperidinyl-1′-yl-phenylamino)-imidazo[1,2a]pyridi-5-yl]-1H-pyridin-2-one] |
| < 5.52 | 6.00 to 7.00 | NC(=O)c1ccc(-c2ccc(Nc3ccc(N4CCN(C5CCC5)CC4)cc3)c3nccn23)cc1 [Compound 78] |
| 6.00 to 7.00 | 6.00 to 7.00 | c1cn2c(-c3cn[nH]c3)ccc(Nc3ccc(N4CCOCC4)cc3)c2n1 [Compound 2, (4-Morpholin-4-yl-phenyl)-[5-(1H-pyrazol-4-yl)-imidazo[1,2-a]pyridin-8-yl]-amine] |
| < 5.52 | > 7.00 | CC(C)N1CCN(C(=O)c2ccc(Nc3ccc(-c4ccc5c(c4)CNC5=O)n4ccnc34)cc2)CC1 [Compound 48, 5-(8-(4-(4-isopropylpiperazine-1-carbonyl)phenylamino)imidazo [1,2-a]pyridin-5-yl)isoindolin-1-one] |
| 5.52 to 6.00 | 5.52 to 6.00 | CS(=O)(=O)c1ccc(Nc2ccc(-c3ccc(C(N)=O)c(F)c3)n3ccnc23)cc1 [Compound 72] |
| < 5.52 | 5.52 to 6.00 | O=C(Nc1ccccc1)c1ccc(Nc2ccc(-c3ccc4c(c3)CNC4=O)n3ccnc23)cc1 [Compound 17, 4-(5-(1-oxoisoindolin-5-yl)imidazo[1,2-a]pyridin-8-ylamino)-N-phenylbenzamide] |
| 6.00 to 7.00 | 6.00 to 7.00 | CC(C)N1CCN(c2ccc(Nc3ccc(-c4csc(C(N)=O)c4)n4ccnc34)cc2)CC1 [Compound 8, 4-{8-[4-(4-Isopropyl-piperazin-1-yl)-phenylamino]-imidazo[1,2-a]pyridin-5-yl}-thiophene-2-carboxylic acid amide] |
| 6.00 to 7.00 | 6.00 to 7.00 | CCN1CCN(c2ccc(Nc3ccc(-c4cc[nH]c(=O)c4)n4ccnc34)cc2)CC1 [Compound 91] |
| 5.52 to 6.00 | 6.00 to 7.00 | O=C1NCc2cc(-c3ccc(Nc4ccc(N5CCOCC5)cc4)c4nccn34)ccc21 [Compound 13, 5-(8-(4-morpholinophenyl-amino)imidazo [1,2-a]pyridin-5-yl)isoindolin-1-one] |

Source: patent US20120010206A1, “IMIDAZOLOPYRIDINE COMPOUNDS USEFUL FOR THE TREATMENT OF DEGENERATIVE AND INFLAMMATORY DISEASES” (priority 2006, published 2012)
